# From patent US20250127857A1, “A COMPOSITION COMPRISING IL-36 AND/OR IL-18 FOR USE IN TREATING OCULAR DISORDERS” (THE PROVOST, FELLOWS, FOUNDATION SCHOLARS, & THE OTHER …, priority 2021, published 2025)
# What was measured:
# VEGF [1] = assay: VEGF in HOCFs treated with IL-18; assay type: cell-based, human; settings: IL-18 100 ng/ml over 24 h
# Procedure: (§1) FIG. 20 illustrates IL-18 activates human ocular choroidal fibroblasts and inhibits VEGF secretion, wherein (A) is human ocular choroidal fibroblast (HOCFs) treated with IL-18 at increasing doses for 8 h, wherein cells were fixed and stained with antibody targeting intermediate filament vimentin (red), Hoechst (blue) and phalloidin (green); (B) is HOCFs treated with IL-18 (100 ng/ml) over 60 mins and immunoblotted for phospho-ERK and phospo-p65 with B-actin and GAPDH as controls; (C) is HOCFs treated with IL-18 (100 ng/ml) over 24 h as indicated, wherein cells were analysed for VEGF expression by qPCR (D) is HOCFs treated with 10, 100 or 1000 ng/ml of IL-18 as indicated over 48 h and cell death was analysed by LDH assay;
# VEGF [2] = assay: Retinal VEGF ELISA in JR5558 mice; assay type: in vivo, mouse; settings: JR5558 mice 3 weeks old, 100 μg/kg i.p. on 4 consecutive days, retinas isolated day 8
# Procedure: (§2) FIG. 14 illustrates IL-18 can inhibit VEGF secretion in vivo and in vitro, wherein JR5558 mice at 3 weeks (A) were injected (i.p.) with saline (0 μg/kg) or IL-18 (100 μg/kg) on 4 consecutive days (day 1-4), wherein retinas were isolated on day 8 and VEGF concentration in protein lysates was determined using an appropriate ELISA, wherein data are presented as mean±SEM (n=4-5 animals per each treatment group) and expressed as pg of VEGF per mg of total retinal protein as measured by the BCA assay, *p<0.05 by one-way ANOVA with Tukey post test compared to saline controls; (B) is primary human foetal RPE (hfRPE) cells were treated with control medium (0 ng/ml) or a single dose of IL-18 (1000 ng/ml) for 1 to 72 hours, wherein VEGF concentration in the cell-free supernatants was measured at each time point, wherein rate of VEGF secretion was calculated from the slope of linear regression of VEGF concentration (pg/ml) against time (hours) (C), wherein data are presented as mean±SEM and represent a single experiment carried out in triplicate *p<0.05, ***p<0.001 by Student's t test compared to control at each time point;
# [3] = system: human ocular choroidal fibroblasts (HOCFs); assay: Activation of human ocular choroidal fibroblasts (vimentin/phalloidin staining); assay type: cell-based; settings: IL-18 increasing doses, 8 h
# Procedure: as §1
# HRMEC [4] = assay: Wound healing (scratch) assay in HRMEC, IL-18; assay type: cell-based, human; settings: for mean difference in wound closure vs no treatment (xdiff): IL-18, VEGF, bFGF each 50 ng/ml, closure expressed as % closure
# Procedure: FIG. 16 illustrates HRMEC migration in response to IL-18 and IL-1α stimulation, wherein confluent HRMEC monolayers were scratched with a pipette tip and treated with IL-18 (50 ng/ml) or IL-1α (10 ng/ml) along with bFGF (50 ng/ml) or VEGF (50 ng/ml) as positive controls, wherein images were taken immediately following scratch (0 hrs) and at 4, 8 and 24 hours following scratch, wherein images were analysed using ImageJ imaging software, wherein data are presented as mean±SEM of 6 separate experiments in triplicate, wherein data were analysed using 2way ANOVA with Dunnett's multiple comparison test. (*p<0.05, *p<0.01, ****p<0.0001);
# Cells were seeded on to a 12-well plate and grown until they reached confluency. 24 hours prior to the scratch, culture medium was replaced with 0.5% Serum media without supplements for 24 hours to induce cell quiescence. Cell monolayers were scratched once down the centre of the well using a p200 pipette tip and washed once with warmed DPBS to remove debris then replaced with 0.5% serum supplemented media with experimental treatments. Images were acquired using an Olympus IX51 inverted microscope with Cell^A imaging software (Olympus). Images were taken at baseline immediately following scratch and at suitable timepoints for up to 24 (HRMECs) or 48 hours (BMVECs). The area within the scratch was quantified using ImageJ software, and each timepoint was normalised to its baseline and expressed as % closure.
# [5] = system: laser induced CNV in WT mice; assay: Mesenchymal cell infiltration/activation after laser induced CNV, 3 days; assay type: in vivo, mouse
# Procedure: (§3) FIG. 22 illustrates increased mesenchymal cell infiltration/activation in animals injected with IL-18 intrperitoneally, wherein WT mice underwent laser induced CNV and were injected IP with IL-18 (100 ug/kg), wherein 3 days later eyes were enucleated, flatmounts were stained with F4/80, vimentin and isolectin and imaged by confocal microscopy;
# as §3, with “23” for “22”, “intra-vitreally,” for “intrperitoneally,”, “intravitreally” for “IP”, “(0.3ng/eye),” for “(100 ug/kg),”
# HRMEC [6] = assay: MTS assay of HRMEC proliferation with VEGF and IL-18; assay type: cell-based, human
# Procedure: FIG. 17 illustrates HRMEC proliferation in response to VEGF is enhanced with IL-18 pre-treatment, wherein HRMECs were treated with increasing concentrations of VEGF alone or with a 24 hour pre-treatment of IL-18 at 10, 100 or 1000 ng/ml, wherein increasing VEGF induced an increase in cell proliferation which was enhanced following IL-18 treatment;
# Cell viability was assessed using the CellTiter 96 AQueous One Solution cell proliferation MTS assay (Promega) as per the manufacturer's instructions. Cell monolayers were treated for times indicated where treatment supplemented media was then removed and incubated with 20 μl of CellTiter 96 AQueous One Solution in 100 μl of complete growth medium in a humidified incubator at 37° C. with 5% CO2for 1-4 hours. The absorbance of each well was measured at 490 nm using a SynergyMX plate reader (Biotek, Gen5™).
# [7] = system: human ocular choroidal fibroblasts (HOCFs); assay: LDH assay of HOCF cell death; assay type: cell-based; settings: HOCFs, 10, 100 or 1000 ng/ml IL-18 over 48 h
# Procedure: as §1
# VEGF [8] = assay: VEGF secretion by primary human foetal RPE (hfRPE) cells; assay type: cell-based; settings: IL-18 1000 ng/ml, 1-72 hours
# Procedure: as §2
substance,measurement,setting,value
IL-18: recombinant human IL-18 (SB-485232; GSK),baseline secretion of VEGF from HOCFs,VEGF [1],strongly reduces the baseline secretion of VEGF
same,VEGF levels in the retinas,VEGF [2],significantly decreased
same,HOCF activation / morphology,[3],activates HOCFs causing them to change morphology
same,mean difference in wound closure vs no treatment (xdiff),HRMEC [4]; 8 hours post scratch,−0.99
same,mean difference in wound closure vs no treatment (xdiff),HRMEC [4]; 24 hours post scratch,−12.58
same,rate of wound closure,"HRMEC [4]; IL-18 50 ng/ml, vs no treatment control",significantly increased the rate of wound closure
same,vimentin staining at CNV lesion,[5]; IL-18 0.3ng/eye intravitreally,driving vimentin positive cells to encapsulate the neovascular lesion
same,vimentin staining at CNV lesion,[5]; IL-18 100 ug/kg intra-peritoneally,increased vimentin
same,"HRMEC proliferation, IL-18 alone",HRMEC [6],able to enhance HRMEC proliferation
same,VEGF induced proliferation after IL-18 pre-treatment,"HRMEC [6]; 24 hour pre-treatment with IL-18 at 10, 100 or 1000 ng/ml",VEGF induced proliferation was increased
same,HOCF death (LDH assay),[7],does not cause HOCF death and may enhance HOCF viability
same,VEGF concentration in cell-free supernatants,VEGF [8],decreased VEGF concentration at (almost) all time points examined
same,overall rate of VEGF secretion,VEGF [8],significantly slowed down the overall rate of VEGF secretion
